Common to all, as to assay: NCI-60 cell line screen, 48 h
Experiment [1] relates to HT29 colon.
In experiment [2] the test system is RXF 393 renal.
The test system of experiment [3] is NCI-H23 lung.
The test system of experiment [4] is OVCAR-4 ovarian.
Experiment [5] deals with HCC-2998 colon.
The test system of experiment [6] is NCI-H522 lung.
Experiment [7] concerns M14 melanoma.
For experiment [8], the system named is HCT-15 colon.
In experiment [9] the test system is HCT-116 colon.

Each structure is given as a SMILES string. Where “and” joins values, the source holds several entries; their conditions need not be identical. Equal entries are not always repeated.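 A five-concentration, 48-hour dose response in 96-well plates underlies each endpoint, interpolated linearly between surrounding concentrations. At the GI50, growth is halved. TGI marks complete inhibition of growth.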

Take `CC1=C(C(=O)Nc2ccc([N+](=O)[O-])cc2)C(c2ccccc2O)C(C(=O)Nc2ccc([N+](=O)[O-])cc2)=C(C)N1`: the TGI stood at 57.8 µM in experiment [1]; 45.9 µM in experiment [2]; 66.7 µM in [3]; 73.8 µM in experiment [4]; 27.2 µM in experiment [5]; 35.9 µM in [6]. The same compound returned a TGI in [7] of 45.1 µM.

With `CCCCN=C(NC#N)N(Cc1ccccc1)Cc1ccccc1`, the TGI in experiment [1] was 28.7 µM; in experiment [2] it was 65.5 µM; in experiment [3], 77.4 µM; in [4] it was over 100 µM; in experiment [5] it was 62.1 µM; in experiment [6] it was 31.1 µM. The TGI turned out to be 29.8 µM in experiment [8], 53.3 µM in [7] and 39.5 µM in [9].

With `CN(C(=O)C12C3(C(=O)C(C)(C)C)C4C5(C#N)C3C1(C(=O)C(C)(C)C)C5C42C(=O)C(C)(C)C)C(C)(C)C` (stereo not given), the TGI in experiment [1], in [3], in [4], in experiment [5], in [6] and in [8] was over 50 µM in each case. For the same compound, the TGI in experiment [7] and in [9] was over 50 µM each time.

Consider `O=c1cc(-c2ccccc2)[nH]c2c(Cl)cccc12`, for which the TGI in [1] is over 100 µM; in experiment [2], 67.1 µM; in experiment [3] it was over 100 µM; in experiment [4] it was 66.3 µM; in [5], over 100 µM; in experiment [8], over 100 µM. Also, the TGI in [7] and in experiment [9] was over 100 µM throughout.

For the compound `O=C(O)C(C(=O)C(=O)C(C(=O)O)c1ccc(Cl)cc1)c1ccc(Cl)cc1` (stereo not given), the TGI in [1] stood at 11.1 µM; in experiment [2], 8.37 µM; in experiment [3], 5.6 µM; in experiment [4], 6.96 µM; in [5], 14.1 µM; in experiment [6], 4.45 µM. In addition, the TGI was 16.4 µM in [7] and 12.1 µM in [9].

For the compound `O=[P+](O)c1cc2ccccc2c2ccccc12`, the TGI in experiment [1], in [2], in experiment [3], in [4], in experiment [5] and in [6] was over 100 µM in each case. Further, the TGI in [7] and in [9] was over 100 µM each time.

As for `COC(=O)[C@@]1(O)CC(C)C=C1C=O` (stereo not given in full), the TGI in [1] is over 100 µM; in [2], 42.9 µM; in experiment [3], over 100 µM; in [4], over 100 µM; in [5], over 100 µM; in experiment [6] it was 94.9 µM. Further, the TGI in experiment [8] is 33.1 µM; in [7], over 100 µM; in experiment [9], 38.4 µM.

In the case of `CCCCCCCCC(O)C#CC(N)=O` (stereo not given), the TGI in [1] is 24.5 µM; in [2], 29.2 µM; in [3], 35.6 µM; in [4], 12 µM; in experiment [5], 22.4 µM; in experiment [8] it was 30.9 µM. The TGI is 25.6 µM in experiment [7] and 16.6 µM in [9].

`COc1ccc(OC)c(NCC#N)c1`: the TGI in experiment [1], in experiment [2], in [3], in [4], in [5] and in experiment [6] was over 100 µM in each case. Moreover, the TGI in experiment [8], in experiment [7] and in [9] was over 100 µM throughout.

For the compound `O=C1[C@H]2ON(c3ccccc3)C(c3ccccc3F)[C@H]2C(=O)N1c1ccc(Cc2ccc(N3C(=O)[C@@H]4ON(c5ccccc5)C(c5ccccc5F)[C@@H]4C3=O)cc2)cc1` (stereo not given in full), the TGI in [1], in [2], in [3], in experiment [4], in experiment [5] and in experiment [8] was over 100 µM in each case. For the same compound, the TGI in [7] is over 100 µM.

For `CC(=O)OC(C)(C)/C=C/C(=O)[C@](C)(O)[C@H]1[C@H](O)C[C@@]2(C)[C@@H]3CC=C4[C@@H](C[C@H](O)C(=O)C4(C)C)[C@]3(CO)C(=O)C[C@]12C`, the GI50 in experiment [1] is 0.276 µM; in experiment [3], 0.621 µM; in experiment [4] it was 0.295 µM; in [6], 0.112 µM; in experiment [8], 0.351 µM; in [7], 0.0857 µM. The GI50 in experiment [9] is 0.236 µM. Also, the TGI was 0.405 µM and 0.458 µM in experiment [2]; 14.7 µM in experiment [3]; 0.835 µM in [4]; 15.1 µM in [5]; 0.855 µM and 0.675 µM in experiment [6]; over 100 µM in experiment [8]. Further, the TGI in experiment [7] amounted to 4.12 µM; in [9], 10 µM.

Regarding `CCOC(=O)[C@H]1CSC[C@@H](C(=O)OC)N1`, the TGI in experiment [1], in [2], in experiment [3], in experiment [4], in experiment [5] and in [6] was over 100 µM in each case. For the same compound, the TGI in experiment [8], in experiment [7] and in [9] was over 100 µM throughout.

Consider `CC(C)N1CCC2(CC1)NNc1ncccc1-n1cccc12`, for which the TGI in [1], in experiment [3], in [4], in experiment [5], in experiment [6] and in [7] was over 100 µM each time. In addition, the TGI in experiment [9] was over 100 µM.

Regarding `O=c1cc(-c2ccccc2)nc(/C=C(\O)c2ccncc2)n1-c1ccccc1`, the TGI in experiment [1], in experiment [2], in [3], in experiment [4], in experiment [5] and in experiment [6] was over 100 µM each time. The TGI in experiment [8], in experiment [7] and in experiment [9] was over 100 µM in each case.

Turning to `CCCOC(=O)N[C@H]1CCc2cc(OC)c(OC)c(OC)c2-c2ccc(SC)c(=O)cc21`, the GI50 in [1], in experiment [3], in experiment [5], in experiment [6], in experiment [8] and in experiment [7] was under 0.01 µM in each case. Besides, the GI50 in [9] is under 0.01 µM. Moreover, the TGI was over 39.4 µM in experiment [1]; over 100 µM in experiment [3]; over 71.5 µM in experiment [4]; 4.92 µM in experiment [5]; 7.25 µM in experiment [6]; 12 µM in experiment [8]. In [9], this compound showed a TGI of 14.8 µM.

The record behind these values is PubChem BioAssay (NCI).
